Data: PMC10107299, “Neutralizing the Impact of the Virulence Factor LecA from Pseudomonas aeruginosa on Human Cells with New Glycomimetic Inhibitors” (Angewandte Chemie (International Ed. in English), 2023)

Test system: P. aeruginosa PAO1
Test: Invasion assay of P. aeruginosa PAO1 into H1299 cells
Format: cell-based, Pseudomonas aeruginosa
Method: P. aeruginosa is able to invade non‐phagocytic cells via a lipid zipper mechanism.[10] Binding of LecA to the glycosphingolipid Gb3 followed by LecA‐induced receptor clustering plays a crucial role in this process. The LecA ligand 4‐nitrophenyl α‐ D‐galactopyranoside (PNPG) has been previously shown to interfere with these events at a high concentration of 10 mM leading to a reduction of bacterial invasiveness to 30–60 % as compared to untreated bacteria (100 % invasiveness).[10, 31] For invasion assays, H1299 cells were incubated with P. aeruginosa in presence and absence of LecA inhibitors, followed by killing of extracellular bacteria with the antibiotic amikacin. Then, all intracellular bacteria were released by lysis of the human cells and viable bacteria were quantified by plating. To assess the impact of LecA inhibitors on the invasiveness, the influence of the divalent LecA inhibitor L2 on bacterial invasion into host cells was evaluated and compared to PNPG. […] In contrast, the divalent LecA ligand L2 achieved an invasion decrease to 44 % already at 100 μM (Figure 5c). L2 was thus able to reach a similar reduction of invasion at a 100‐fold lower concentration than the one needed for PNPG. […]
lectin-inhibitor solution for 24 h at 37 °C. In order to depict exactly the same position for each wound, marker lines were drawn on the bottom of the 12-well plates for each well. The samples were imaged with an EVOS microscope (PEQLAB by VWR Life Sciences, Avantor […]
Excel. […]
A chromosomally GFP-tagged Gentamicin-resistant Pseudomonas aeruginosa PAO1 strain was cultured (LB medium supplemented with 60 µg/mL Gentamicin, 37 °C, 180 rpm, 16 h) and invasion assays were performed in analogy to Eierhoff et al..[13] 1.5 x 10^4 H1299 cells per well were seeded one day prior to the invasion assay in a 96-well plate with flat bottom. An […]
overnight culture of P. aeruginosa was centrifuged for 5 min at 3000 x g, washed with PBS (- /-) and re-suspended in RPMI 1640 medium. The newly synthesized divalent LecA ligand L2 was compared to 4-nitrophenyl α-D-galactopyranoside (PNPG; Sigma-Aldrich, Chemie GmbH, Darmstadt, Germany). […]
Subsequently, cells were washed three times with DPBS and lysed by incubation with 0.25% (v/v) Triton X-100 (Carl Roth GmbH & Co. KG, Karlsruhe, Germany) for 5 min at 37 °C and 180 rpm. […] Bacterial colonies were counted the next day. […] The invasion rate was calculated as the number of intracellularly localized bacteria divided by the total number of non-treated bacteria, bacteria that were not treated with any ligands and neither amikacin, thus the number of P. aeruginosa that successfully invaded or stayed attached to the host cells. Experiments were repeated independently at least four times (N ≥ 4) and evaluated […]

## O=C(CCc1ccc(O[C@@H]2O[C@H](CO)[C@H](O)[C@H](O)[C@H]2O)cc1)Nc1ccc(CCc2ccc(NC(=O)CCc3ccc(O[C@@H]4O[C@H](CO)[C@H](O)[C@H](O)[C@H]4O)cc3)cc2S(=O)(=O)O)c(S(=O)(=O)O)c1 [Compound L2]
100 μM L2 vs 10 mM PNPG
  Lower concentration than PNPG for similar reduction of invasion: 100 fold
100 μM inhibitor, PAO1 into H1299 cells, N≥4
  Bacterial invasiveness (untreated bacteria 100 %): 44%
